In ChEMBL document CHEMBL1201862, “PubChem BioAssay data set” (2004):
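A five-concentration, 48-hour dose response in 96-well plates underlies each endpoint, interpolated linearly between surrounding concentrations. GI50: concentration for 50% inhibition of growth.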 The source made the active and inactive calls. No stated cut-off is given here; in the data, active = GI50 up to about 1.1 µM and inactive = higher.

How the values were obtained:
Experiment in all cases: NCI-60 cell line screen, 48 h
SNB-75 = tested on: SNB-75
LOX IMVI = tested on: LOX IMVI
SK-MEL-2 = tested on: SK-MEL-2
RXF 393 = tested on: RXF 393
HOP-62 = tested on: HOP-62
OVCAR-8 = tested on: OVCAR-8
HOP-92 = tested on: HOP-92
KM12 = tested on: KM12
CAKI-1 = tested on: CAKI-1
HCC 2998 = tested on: HCC 2998
K562 = tested on: K562
IGROV-1 = tested on: IGROV-1
MCF7 = tested on: MCF7
OVCAR-4 = tested on: OVCAR-4
HCT-116 = tested on: HCT-116
SN12C = tested on: SN12C
SR = tested on: SR
ACHN = tested on: ACHN
MDA-MB-231 = tested on: MDA-MB-231

Row | Structure (SMILES) | GI50 (SNB-75) | GI50 (LOX IMVI) | GI50 (SK-MEL-2) | GI50 (RXF 393) | GI50 (HOP-62) | GI50 (OVCAR-8) | GI50 (HOP-92) | GI50 (KM12) | GI50 (CAKI-1) | GI50 (HCC 2998) | GI50 (K562) | GI50 (IGROV-1) | GI50 (MCF7) | GI50 (OVCAR-4) | GI50 (HCT-116) | GI50 (SN12C) | GI50 (SR) | GI50 (ACHN) | GI50 (MDA-MB-231)
1 | O=C1c2ccccc2C(O)(C(=O)O)C1(O)CC=C(Cl)Cl (configuration not stated) | > 125 µM (inactive) | > 125 µM (inactive) | > 125 µM (inactive) | > 125 µM (inactive) | > 125 µM (inactive) | > 125 µM (inactive) | > 74.6 µM (inactive) | > 125 µM (inactive) | > 125 µM (inactive) | > 125 µM (inactive) | > 125 µM (inactive) | > 125 µM (inactive) | > 125 µM (inactive) | > 125 µM (inactive) | > 125 µM (inactive) | > 125 µM (inactive) |  |  | 
2 | C=C[C@@](C)(/C=C/c1ccc(O)cc1)CCC=C(C)C [BAKUCHIOL] | 14 µM (inactive) | 18.2 µM (inactive) | 22 µM (inactive) |  | 19.1 µM (inactive) | 16.9 µM (inactive) | 16.5 µM (inactive) |  | 18.6 µM (inactive) | 20.6 µM (inactive) | 15.7 µM (inactive) | 15.8 µM (inactive) | 19.5 µM (inactive) | 14 µM (inactive) | 18.1 µM (inactive) | 18.5 µM (inactive) | 16.5 µM (inactive) | 10.6 µM (inactive) | 18.6 µM (inactive)
3 | O=C(O)C(Cc1cccs1)NC(=O)C(F)(F)F (configuration not stated) | > 100 µM (inactive) | > 100 µM (inactive) | > 100 µM (inactive) | > 100 µM (inactive) | > 100 µM (inactive) | > 100 µM (inactive) | > 100 µM (inactive) | > 100 µM (inactive) | > 100 µM (inactive) | > 100 µM (inactive) | > 100 µM (inactive) | > 100 µM (inactive) | > 100 µM (inactive) | > 100 µM (inactive) | > 100 µM (inactive) | > 100 µM (inactive) |  |  | 
4 | CC1CC(C)(O)C2C3(C)CCCC2(COC3=O)C12CCC1(CCOC1=O)O2 (configuration not stated) | > 250 µM (inactive) | > 250 µM (inactive) | > 250 µM (inactive) | > 250 µM (inactive) | > 250 µM (inactive) | > 250 µM (inactive) | > 250 µM (inactive) | > 250 µM (inactive) | > 250 µM (inactive) | > 250 µM (inactive) | > 250 µM (inactive) | > 250 µM (inactive) | > 250 µM (inactive) | > 250 µM (inactive) | > 250 µM (inactive) | > 250 µM (inactive) |  |  | 
5 | Cc1c2ccncc2c(C)c2c1[nH]c1ccccc12 [ELLIPTECINE] | 1.47 µM (inactive) | 0.536 µM (active) | 2.77 µM (inactive) | 0.288 µM (active) | 0.818 µM (active) | 0.406 µM (active) | 0.538 µM (active) | 0.473 µM (active) | 1.21 µM (inactive) | 2.68 µM (inactive) | 0.47 µM (active) | 0.729 µM (active) | 0.571 µM (active) | 0.802 µM (active) | 0.272 µM (active) | 1.06 µM (active) |  |  | 
6 | O=C(NCCCl)O/N=C/c1cccnc1 | 61 µM (inactive) | > 100 µM (inactive) | > 100 µM (inactive) |  | > 100 µM (inactive) | > 100 µM (inactive) | > 100 µM (inactive) | > 100 µM (inactive) | > 100 µM (inactive) | > 100 µM (inactive) | > 100 µM (inactive) | > 100 µM (inactive) | > 100 µM (inactive) | > 100 µM (inactive) | > 100 µM (inactive) | > 100 µM (inactive) |  |  | 
7 | CC1(C)N=C(N)N=C(N)N1c1ccc(CCc2ccccc2)cc1 | 28.5 µM (inactive) | 0.675 µM (active) | 8.85 µM (inactive) | > 20.9 µM (inactive) |  | 2.53 µM (inactive) | 22.1 µM (inactive) | 1.42 µM (inactive) | 21.6 µM (inactive) | 2.14 µM (inactive) | 2.23 µM (inactive) | 0.348 µM (active) | 1.32 µM (inactive) | 3.53 µM (inactive) | 0.619 µM (active) | 0.759 µM (active) |  |  | 
8 | CCn1c(=O)c(C(=O)O)c(Cl)c2cc3c(cc21)OCO3 | > 100 µM (inactive) | > 100 µM (inactive) | > 100 µM (inactive) | > 100 µM (inactive) | > 100 µM (inactive) | > 100 µM (inactive) | > 100 µM (inactive) | > 100 µM (inactive) | > 100 µM (inactive) | > 100 µM (inactive) | > 100 µM (inactive) | > 100 µM (inactive) | > 100 µM (inactive) | > 100 µM (inactive) | > 100 µM (inactive) | > 100 µM (inactive) |  |  | 
9 | O=c1c2ccccc2ncn1COCc1ccccc1 |  | > 100 µM (inactive) | > 100 µM (inactive) | > 100 µM (inactive) |  | > 100 µM (inactive) | > 100 µM (inactive) | > 100 µM (inactive) |  | > 100 µM (inactive) | > 100 µM (inactive) | > 100 µM (inactive) | > 100 µM (inactive) | > 100 µM (inactive) | > 100 µM (inactive) |  | > 100 µM (inactive) | > 100 µM (inactive) | 
10 | O=C(C1C(c2ccccc2)N1C(c1ccccc1)c1ccccc1)C1C(c2ccccc2)N1C(c1ccccc1)c1ccccc1 (configuration not stated) | 45.6 µM (inactive) |  |  |  | > 100 µM (inactive) | 29.6 µM (inactive) |  | 26.9 µM (inactive) |  | 17.7 µM (inactive) | 3.66 µM (inactive) | > 10 µM (inactive) | 5.31 µM (inactive) | 38.1 µM (inactive) | 5.08 µM (inactive) | 21.8 µM (inactive) | 3.51 µM (inactive) | > 10 µM (inactive) | 19.8 µM (inactive)
11 | CC(C)CCCC(C)[C@H]1CCC(C2C[C@@H](O)[C@@H]3CC(O)[C@@H](O)C[C@]3(CO)C2=O)[C@]1(C)CCO (some centres not stated) | 20.4 µM (inactive) | 20.9 µM (inactive) | 22.3 µM (inactive) | 24.9 µM (inactive) | 23.9 µM (inactive) | > 50.1 µM (inactive) |  | 14.3 µM (inactive) |  | 21.2 µM (inactive) | 24.4 µM (inactive) | 23.3 µM (inactive) | 14.2 µM (inactive) | 30.6 µM (inactive) | 20 µM (inactive) | 30.2 µM (inactive) |  |  | 
12 | O=C(CCc1ccccc1)CC1OC(=O)C(Cl)=C1Cl (configuration not stated) | 53.6 µM (inactive) | 18.6 µM (inactive) | 19.1 µM (inactive) | 29.5 µM (inactive) | 26.2 µM (inactive) | 20 µM (inactive) | 23.9 µM (inactive) | 17.5 µM (inactive) | 29.5 µM (inactive) | 18.6 µM (inactive) | 35 µM (inactive) | 22.2 µM (inactive) |  | 96.4 µM (inactive) | 14.8 µM (inactive) | 18.5 µM (inactive) | 30.5 µM (inactive) | 20.5 µM (inactive) | 
13 | OCC1OC(n2cnc3c2NC=NC[C@H]3O)C(O)C1O (some centres not stated) | 412 µM (inactive) | 170 µM (inactive) | 339 µM (inactive) | 238 µM (inactive) | > 337 µM (inactive) | > 450 µM (inactive) | > 192 µM (inactive) | > 450 µM (inactive) | 226 µM (inactive) | > 330 µM (inactive) | 249 µM (inactive) | > 450 µM (inactive) | > 450 µM (inactive) | > 450 µM (inactive) | 260 µM (inactive) | 293 µM (inactive) |  |  | 
